“And” between values parts separate entries of the source, which are not always exact repeats. Equal values may be shown once. One block for each compound: values may come before it.
Experiments:
[1] = Blood analysis of the monkey PET study (plasma parent and metabolites); format: in vivo, Rhesus monkey
Procedure: A blood analysis of the monkey PET study subsequent to administration of ^18F-mefway was performed to observe levels of breakdown in the blood similar to methods described for ^18F-fallypride. Venous whole blood (approx. 1 mL) was obtained at various time-points (5, 10, 15, 30, 45, 60, 90, 120, 150 and 180 min) during the course of the PET study. The samples were centrifuged in a Microfuge centrifuge (Eppendorf Centrifuge 5415C) at 12,000 rpm for 5 min. Plasma, 0.6 mL was separated from each sample and 0.1 mL was counted from each sample. […]. The remaining 0.5 mL of plasma at each time point was combined with 0.1 mL NaHCO3 and mixed well and subsequently extracted with 0.4 mL of ethyl acetate. The ethyl acetate was separated and 0.1 mL of ethyl acetate layer and 0.1 mL of aqueous layer were counted for analysis of ^18F-mefway in blood. […] The developed TLC plate was dried, apposed overnight to phosphor screen, and were read using the Phosphor Cyclone Imager (Packard Instruments Co., Boston Mass.). The amount of ^18F-mefway was evaluated in digital light units (DLU/mm^2) using Opti-Quant acquisition and analysis program (Packard Instruments Co.). All blood samples were counted for radioactivity in a Packard Gamma Counter 5000 series.

5-HT1A receptors = molecular target: T1, 5-HT1A receptors (Macaca mulatta, UniProt F7GIU0); test: Monkey PET study with ^18F-mefway; format: in vivo, Rhesus monkey
T1 construct: from tissue; host or cells: brain of a living anaesthetised Rhesus monkey (PET)
T1 sequence (F7GIU0 1-421): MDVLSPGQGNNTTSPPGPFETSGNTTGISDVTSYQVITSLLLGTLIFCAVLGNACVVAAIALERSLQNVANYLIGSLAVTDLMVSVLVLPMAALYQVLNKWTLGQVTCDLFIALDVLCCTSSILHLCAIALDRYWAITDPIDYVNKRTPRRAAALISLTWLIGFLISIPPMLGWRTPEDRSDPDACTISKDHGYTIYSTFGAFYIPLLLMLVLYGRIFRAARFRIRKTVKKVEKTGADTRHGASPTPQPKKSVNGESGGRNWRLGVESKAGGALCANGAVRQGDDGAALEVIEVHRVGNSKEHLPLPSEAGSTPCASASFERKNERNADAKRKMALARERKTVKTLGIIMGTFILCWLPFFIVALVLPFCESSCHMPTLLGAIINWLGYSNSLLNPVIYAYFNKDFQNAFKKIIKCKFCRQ
Procedure: In vivo studies were performed in a Rhesus monkey. The monkey was anesthetized using ketamine (10 mg/kg) and xylazine (0.5 mg/kg) and maintained on 1-1.5% isoflurane. Two intravenous catheters were placed, one on each arm, for administration of the radiopharmaceutical and for obtaining blood samples during the study. Vital signs of the money were monitored carefully. […] The head of the animal was placed in the gantry of an ECAT EXACT HR+PET scanner and positioned in place with the use of adhesive tape. A transmission scan using a Ge-68/Ga-68 rod source was acquired prior to administration of the radiopharmaceutical to correct for tissue attenuation of the coincident radiation. A dynamic sequence of scans was acquired for 180 minutes after administration of 130 MBq of ^18F-Mefway intravenously (specific activity=74-111 GBq/μmol). Data in the final form were expressed in units of percent-injected dose/mL or kBq/mL. Areas showing maximal radioligand binding in the frontal cortex, temporal cortex, dorsal raphe and other braain regions were delineated in the images. The PET images were coregistered with an MRI image template of the rhesus monkey in order to provide anatomical detail as reported previously. This MRI template of the rhesus (Macaca mulatta) brain is an average of 6 monkeys with T1-weighted MR scans. PET image summed till 120 min duration was used for the coregistration. Coregistration of the PET-MR data was carried out by VINCI program (CPS Innovations, Inc.). Time activity curves were obtained for all of these regions.

[2] = Defluorination of ^18F-mefway in in vitro and in vivo experiments; settings: numerous in vitro and in vivo experiments
[3] = Lipophilicity (log P) by partitioning between n-octanol and Tris-HCl buffer; format: physicochemical; settings: n-octanol and 50 M Tris-HCl (pH 7.4) buffer
Procedure: Lipophilicity (log P) was measured to evaluate lipid solubility of ^18F-mefway. The lipophilicity was measured by partitioning between n-octanol and […] Tris-HCl (pH 7.4) buffer. Into three tubes 2 mL of n-octanol and 2 mL of buffer were added and vortexed. To this mixture 370 kBq of ^18F-mefway was added. The mixture was again vortexed and allowed to settle. The layers were separated and the aqueous layer was centrifuged again to remove n-octanol contamination. An aliquot of both layers was counted for concentration of ^18F-mefway using the Cobra Quantum well counter (Packard Instruments Co., Boston, Mass.). Log P was taken as the concentration of ^18F-mefway in n-octanol over concentration of buffer.

5HT1A receptor [4] = molecular target: T2, 5HT1A receptor (Rattus norvegicus, UniProt P19327); test: Competitive binding assay in rat brain slices using ^18F-mefway as the radioligand (autoradiography); settings: 167 kBq/mL ^18F-mefway, 37° C. 1 hour, measured autoradiographically in the hippocampus (FIG. 5), read-out: Binding affinity (IC50) against ^18F-mefway
T2 construct: from tissue; host or cells: 10 um horizontal brain slices of Sprague-Dawley rats
T2 sequence (P19327 1-422): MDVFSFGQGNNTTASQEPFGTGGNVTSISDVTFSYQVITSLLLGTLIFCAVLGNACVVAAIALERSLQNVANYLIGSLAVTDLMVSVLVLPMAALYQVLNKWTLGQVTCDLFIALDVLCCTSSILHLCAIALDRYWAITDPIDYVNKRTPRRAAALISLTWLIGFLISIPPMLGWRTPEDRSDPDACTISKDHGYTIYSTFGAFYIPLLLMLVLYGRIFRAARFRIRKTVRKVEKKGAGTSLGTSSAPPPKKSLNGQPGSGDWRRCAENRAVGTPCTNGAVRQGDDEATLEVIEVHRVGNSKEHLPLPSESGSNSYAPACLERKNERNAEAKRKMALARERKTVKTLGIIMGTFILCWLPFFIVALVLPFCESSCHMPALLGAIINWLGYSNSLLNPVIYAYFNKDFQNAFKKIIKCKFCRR
Procedure: In vitro binding affinity of mefway was measured in rat brain slices labeled with fluorine-18. The brains from Sprague-Dawley rats were extracted and frozen in isopentane at −20° C. Several 10 μm thick horizontal rat brain slices were pre-incubated at room temperature for 15 minutes in 50 mM Tris-HCl buffer (pH 7.4). […] After incubation slides were washed twice with cold buffer for one minute, dipped in cold water, air dried, and exposed to phosphor storage screens for 24 hours. Autoradiographs were generated using the Packard Phosphor Cyclone Imager, and the apposed phosphor screens were read by the Cyclone Storage Phosphor System. […] Binding affinity (IC50) was calculated using KELL program (BioSoft Inc).

5HT1A receptor [5] = molecular target: T2, 5HT1A receptor; test: Competition study of serotonin with ^18F-mefway in rat brain slices; format: binding
Procedure: Male Sprague-Dawley rats (200-250 g) were anesthetized and decapitated, the brain was rapidly removed and frozen in isopentane at −20° C. Horizontal slices were cut 10 μm thick using a Leica 1850 cryotome. Slices contained the regions of cortex, hippocampus, and other regions known to contain 5-HT1A receptors. Brain slices were stored at −20° C. Brain slices were preincubated in 50 mM Tris-HCl buffer (pH 7.4) for 10 mins. The slices were then incubated with 130-148 kBq/mL of ^18F-mefway at 37° C. for 1 hr. […] After incubation, slides were washed twice (one minute for both washes) with ice-cold buffer. Slides were then quickly dipped in cold deionized water, air dried, and exposed to a phosphor screen for 24 hours. The autoradiographs were generated using the Phosphor Cyclone Imager (Packard Instruments Co., Boston Mass.). The amount of binding was evaluated in digital light units (DLU/mm^2) using OptiQuant accusation and analysis program (Packard Instruments Co.) Autoradiographs were quantified using a computer-based image analysis system (OptiQuant Version 4.0 Packard Instruments Co., Boston Mass.).

5HT1a receptor [6] = molecular target: T3, 5HT1a receptor (Mus musculus, UniProt Q64264); test: trans-^18F-mefway binding in transgenic mouse models of Alzheimer's disease; settings: transgenic mouse models of Alzheimer's disease (data not shown)
T3 construct: from tissue
T3 sequence (Q64264 1-421): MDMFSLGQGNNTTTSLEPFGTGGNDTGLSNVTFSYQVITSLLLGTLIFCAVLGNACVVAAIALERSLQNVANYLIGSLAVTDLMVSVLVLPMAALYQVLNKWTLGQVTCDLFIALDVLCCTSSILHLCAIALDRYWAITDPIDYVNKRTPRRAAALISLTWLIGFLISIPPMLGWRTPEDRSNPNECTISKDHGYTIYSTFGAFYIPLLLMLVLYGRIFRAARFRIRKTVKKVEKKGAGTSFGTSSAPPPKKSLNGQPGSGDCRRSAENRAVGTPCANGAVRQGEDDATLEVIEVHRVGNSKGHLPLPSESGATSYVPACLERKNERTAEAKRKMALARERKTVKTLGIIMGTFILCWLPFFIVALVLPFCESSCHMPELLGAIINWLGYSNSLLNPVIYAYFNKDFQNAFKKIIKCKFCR
Excerpt: (§1) Binding of trans-^18F-mefway was evident in several 5HT1A receptor-rich regions, including hippocampus and cortex. Using cerebellum as a reference region, rat brain slices gave ratios of hippocampus/cerebellum=55 and cortex/cerebellum=17. Studies in transgenic mouse models of Alzheimer's disease show >90% loss in 5HT1a receptor binding (data not shown).

5HT1A receptor [7] = molecular target: T2, 5HT1A receptor; test: Rodent studies with trans-^18F-mefway, rat brain slices; format: binding; settings: cerebellum as reference region
Excerpt: as §1

Compound: O=C(O)C1CCC(C[18F])CC1 (stereo not shown) [^18F-4-fluoromethylcyclohexane carboxylic acid]
plateau of acid metabolite (aqueous fraction) in plasma ([1]; after 50 mins post-injection): 50-60%

Compound: COc1ccccc1N1CCN(CCN(C(=O)C2CCC(C[18F])CC2)c2ccccn2)CC1 (stereo not shown) [^18F-mefway, N-{2-[4-(2-methoxyphenyl)piperazinyl]ethyl}-N-(2-pyridyl)-N-(4-^18F-fluoromethylcyclohexane)carboxamide]
raphe ratio (to cerebellum) (5-HT1A receptors; PET): 3.5
time of peak of ratios, second group of regions (5-HT1A receptors; PET): around 80 mins
ratio of hippocampus to cerebellum (5-HT1A receptors; PET, at pseudoequilibrium): exceeded 9
time to reach uptake level in various regions (5-HT1A receptors; PET, brain uptake after i.v. administration): less than 2 mins
hippocampus to cerebellum ratio, peak (5-HT1A receptors; PET, peak): 9.7
uptake level in various brain regions (5-HT1A receptors; PET, reached in less than 2 mins): greater than 0.03 % injected dose/mL
ratio to cerebellum, thalamus, striatum and raphe (5-HT1A receptors; PET, third group of regions): 2-3.5
initial activity in the cerebellum still present (5-HT1A receptors; after 3 hrs): about 6%
vital signs of the monkey (5-HT1A receptors; anesthetized Rhesus monkey during PET study): did not show any unusual deviations from baseline values
hippocampus to cerebellum ratio at end of scan (5-HT1A receptors; end of the 3 hr scan): 8.4
initial activity in the hippocampus still specifically bound (5-HT1A receptors; end of the 3 hr scan): approx 60%
time of approach to pseudoequilibrium / plateau of ratio in receptor-rich regions (5-HT1A receptors; hippocampus (and cortical hot spot), PET, 130 MBq i.v.): around 80 mins
^18F-mefway remaining unmetabolized in plasma ([1]; 3 hours post injection): approximately 30%
defluorination [2]: virtually no deflourination
Lipophilicity (Log P) [3]: 2.62±0.06

Compound: NCCc1c[nH]c2ccc(O)cc12 [serotonin]
displaced ^18F-mefway binding in cortex (5HT1A receptor [5]; cortex): > 70%
displaced ^18F-mefway binding in hippocampus (5HT1A receptor [5]; hippocampus): > 85%

Second part, the compound after the results:

IC50 (5HT1A receptor [4]): 32.1 nM and 25.7 nM
Compound: COc1ccccc1N1CCN(CCN(C(=O)C2CCC(CF)CC2)c2ccccn2)CC1 (stereo not shown) [mefway, N-{2-[4-(2-methoxyphenyl)piperazinyl]ethyl}-N-(2-pyridyl)-N-(4-fluoromethylcyclo-hexane)-carboxamide]

loss in 5HT1a receptor binding (5HT1a receptor [6]): > 90%
cortex/cerebellum ratio (5HT1A receptor [7]): 17
hippocampus/cerebellum ratio (5HT1A receptor [7]): 55
Compound: COc1ccccc1N1CCN(CCN(C(=O)C2CCC(CF)CC2)c2ccccn2)CC1 (stereo not drawn) [trans-^18F-mefway]

From patent publication USRE43688E1 (The Regents of the University of California, priority 2006, dated 2012)
